# Assay results as given in ChEMBL document CHEMBL1201862, “PubChem BioAssay data set” (2004).
#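 Five concentrations, 48 hours, 96-well plates. GI50 marks 50% less growth.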 The source made the active and inactive calls. Cut-off read from the data, not from the text of the source: active = GI50 up to about 1.1 µM and inactive = higher.
# What was measured:
# Test in all cases: growth of human tumour cells (NCI), 48 h
# A549 = system: A549
# CCRF-CEM = system: CCRF-CEM
# HCT-15 = system: HCT-15
# HT-29 = system: HT-29
# KM12 = system: KM12
# LOX IMVI = system: LOX IMVI
# M14 = system: M14
# Malme-3M = system: Malme-3M
# OVCAR-4 = system: OVCAR-4
# RXF 393 = system: RXF 393
# SF-268 = system: SF-268
# SK-MEL-28 = system: SK-MEL-28
# SK-MEL-2 = system: SK-MEL-2
# SK-MEL-5 = system: SK-MEL-5
# SN12C = system: SN12C
# SNB-19 = system: SNB-19
# TK-10 = system: TK-10
# U-251 = system: U-251
# HCT-116 = system: HCT-116
# HOP-62 = system: HOP-62
SMILES,GI50 (A549),GI50 (CCRF-CEM),GI50 (HCT-15) [µM],GI50 (HT-29),GI50 (KM12),GI50 (LOX IMVI),GI50 (M14),GI50 (Malme-3M),GI50 (OVCAR-4),GI50 (RXF 393),GI50 (SF-268),GI50 (SK-MEL-28),GI50 (SK-MEL-2),GI50 (SK-MEL-5),GI50 (SN12C),GI50 (SNB-19),GI50 (TK-10),GI50 (U-251),GI50 (HCT-116),GI50 (HOP-62)
O=C(NO)c1coc2ccccc2c1=O,> 100 µM (inactive),> 100 µM (inactive),> 100,> 100 µM (inactive),> 100 µM (inactive),> 100 µM (inactive),67.9 µM (inactive),88.9 µM (inactive),> 100 µM (inactive),72.9 µM (inactive),91.2 µM (inactive),> 100 µM (inactive),74.3 µM (inactive),> 100 µM (inactive),> 100 µM (inactive),84.9 µM (inactive),35.7 µM (inactive),> 100 µM (inactive),,
COCCOCOc1ccc(OCc2ccccc2)cc1,> 100 µM (inactive),36.6 µM (inactive),> 100,> 100 µM (inactive),> 100 µM (inactive),> 100 µM (inactive),,> 100 µM (inactive),35.7 µM (inactive),> 100 µM (inactive),> 100 µM (inactive),> 100 µM (inactive),> 82.6 µM (inactive),35 µM (inactive),> 100 µM (inactive),> 100 µM (inactive),,> 85.9 µM (inactive),> 100 µM (inactive),> 100 µM (inactive)
Cc1ccccc1-c1nc2c(C(=O)NCCN(C)C)cccc2[nH]1,39.4 µM (inactive),27 µM (inactive),43.8,31.8 µM (inactive),52.8 µM (inactive),38.3 µM (inactive),,30.5 µM (inactive),49.1 µM (inactive),78.9 µM (inactive),50.7 µM (inactive),> 93.3 µM (inactive),> 85.3 µM (inactive),21.7 µM (inactive),40.4 µM (inactive),48.6 µM (inactive),,34.5 µM (inactive),29.6 µM (inactive),31.5 µM (inactive)
NC(=O)Oc1ccccc1 [CARBAMIC ACID PHENYL ESTER],> 100 µM (inactive),> 100 µM (inactive),> 100,> 100 µM (inactive),> 100 µM (inactive),> 100 µM (inactive),> 100 µM (inactive),,> 100 µM (inactive),> 100 µM (inactive),> 100 µM (inactive),> 100 µM (inactive),,> 100 µM (inactive),> 100 µM (inactive),> 100 µM (inactive),> 100 µM (inactive),> 100 µM (inactive),> 100 µM (inactive),
CSc1nc(N)c2c(-c3ccccc3)c3c(nc2n1)CCCC3,> 100 µM (inactive),> 100 µM (inactive),> 100,> 100 µM (inactive),> 100 µM (inactive),> 100 µM (inactive),> 100 µM (inactive),82 µM (inactive),29.6 µM (inactive),29.7 µM (inactive),> 10 µM (inactive),> 100 µM (inactive),,> 100 µM (inactive),> 100 µM (inactive),> 100 µM (inactive),> 100 µM (inactive),> 100 µM (inactive),> 100 µM (inactive),98.4 µM (inactive)
Cc1cc(NS(=O)(=O)c2ccc(NC(=O)c3cccc4c(Nc5ccc(S(N)(=O)=O)cc5)c5ccccc5nc34)cc2)no1,,85.9 µM (inactive),> 100,> 100 µM (inactive),57 µM (inactive),70.3 µM (inactive),> 100 µM (inactive),> 100 µM (inactive),> 100 µM (inactive),> 100 µM (inactive),> 100 µM (inactive),> 100 µM (inactive),> 100 µM (inactive),,> 100 µM (inactive),97.3 µM (inactive),> 100 µM (inactive),87.7 µM (inactive),> 100 µM (inactive),> 100 µM (inactive)
CN(C)c1nc(N(C)C)nc(N(C)CN(C)c2ccccc2)n1,> 100 µM (inactive),> 100 µM (inactive),> 100,> 100 µM (inactive),> 100 µM (inactive),> 100 µM (inactive),,> 100 µM (inactive),> 100 µM (inactive),> 100 µM (inactive),> 100 µM (inactive),> 100 µM (inactive),> 100 µM (inactive),88.7 µM (inactive),> 100 µM (inactive),> 100 µM (inactive),> 100 µM (inactive),> 100 µM (inactive),> 100 µM (inactive),
O=C1OC(c2ccc(O)c(F)c2)(c2ccc(O)c(F)c2)c2cccc3cccc1c23,> 25 µM (inactive),> 25 µM (inactive),> 25,> 25 µM (inactive),> 25 µM (inactive),> 25 µM (inactive),> 25 µM (inactive),> 25 µM (inactive),0.0601 µM (active),> 25 µM (inactive),> 25 µM (inactive),0.0643 µM (active),> 25 µM (inactive),> 25 µM (inactive),1.34 µM (inactive),> 25 µM (inactive),> 25 µM (inactive),> 25 µM (inactive),> 25 µM (inactive),> 25 µM (inactive)
CC(=C/c1ccccc1)/C=C1/NC(=S)N(/C=C2\C(=O)Oc3ccccc3C2=O)C1=O,42.2 µM (inactive),33.8 µM (inactive),45.7,,27.5 µM (inactive),53.5 µM (inactive),54 µM (inactive),,34.9 µM (inactive),0.0664 µM (active),53.6 µM (inactive),52.1 µM (inactive),> 100 µM (inactive),25.6 µM (inactive),98.6 µM (inactive),65.6 µM (inactive),40.7 µM (inactive),41.3 µM (inactive),41.9 µM (inactive),83.2 µM (inactive)
COc1cc2c(cc1Oc1ccc(OC)c3c1CC1c4c(cc(OC)c(OC)c4-3)CCN1C)CC1c3c(cc(OC)c(OC)c3-2)CCN1C (configuration not stated),11.9 µM (inactive),2.45 µM (inactive),2.02,0.35 µM (active),2.35 µM (inactive),0.234 µM (active),,1.85 µM (inactive),2.74 µM (inactive),1.52 µM (inactive),2.33 µM (inactive),1.82 µM (inactive),1.74 µM (inactive),1.64 µM (inactive),6.59 µM (inactive),5.69 µM (inactive),,1.79 µM (inactive),1.77 µM (inactive),17.1 µM (inactive)
